Experimental data from US20160339022A1, “TREATMENT OF NEUROBLASTOMA WITH HISTONE DEACETYLASE INHIBITORS” (Acetylon Pharmaceuticals Inc., priority 2015, published 2016).

Legend:
[1] = system: SK-N-BE(2) cells; experiment: Differentiation Index Score based on a gene signature; format: cell-based; conditions: 48 hours, FIG. 1
Procedure: A subset of the fingerprint genes are assessed for each treatment group, and a score is assigned to each gene based on the degree of expression and weighted with a (+) or (−) sign based on if it increased or decreased as predicted. The scores are summed to generate a single Index value for each treatment group, set to ATRA signal and compared. It is observed that HDAC1/2i induce gene expression consistent with differentiation and that in combination with ATRA, the differentiation effect is enhanced.
The combination of the listed compounds with retinoic acid results in a greater differentation index score, illustrating enhanced differentiation in the combination setting.

[2] = system: neuroblastoma cells; conditions: MTS assay, FIGS. 27 and 28
Procedure: Viable cells were measured in an MTS assay and the combination index (CI) was calculated using the Chou-Talaay method.

[3] = molecular target: HDAC2 (Homo sapiens, UniProt Q92769); experiment: HDAC2 activity in live cells; format: cell-based; conditions: FIG. 1C
[4] = system: p21; experiment: Expression of cell cycle regulator p21; format: cell-based; conditions: single agent, FIG. 6A
[5] = system: retinoic acid receptor (RAR); experiment: Retinoic acid receptor ChIP-seq; format: cell-based; conditions: 3 μM Compound B, 48 hours
From the text: Retinoic acid receptor active binding sites defined in any individual treatment group by ChIP-seq at 48 hrs after treatment were stacked (y-axis) and aligned to the center of the binding peak (x-axis) (FIG. 13). […] Many of the genes found near region 1 binding sites are involved in regulation of retinoid signaling and are transcription factors that drive differentiation (Table 10).
Regions 1-7 of FIG. 13 are defined relative to DMSO: 1, [Combo] Increased; 2, [ATRA] Increased; 3, [ATRA] [Combo] Increased; 4, [Combo] [ATRA] [Compound B] Increased; 5, [Combo] [ATRA] Decreased; 6, [Compound B] Decreased; and 7, [Compound B] [Combo] [ATRA] Decreased.
Neuroblastoma cell line SK-N-BE(2) cells were treated with 3 μM Compound B, 1 μM ATRA, or a combination of both at 37° C. over 48 hours and compared to the solvent (DMSO) control. Antibodies to pan-retinoic acid receptor were used to pull down DNA associated with the receptor binding and sequenced. Lists of binding regions were mapped to the chromosome and “associated” with a given gene if the binding region was located within 10,000 bp up- or down-stream of the gene in question. Binding regions were represented as a heatmap where the sites were stacked on the y-axis across treatments, the “0” mark on the x-axis is the center of the binding peak and the intensity of signal indicated by color. The bracketed regions are areas of statistical significance relative to the DMSO control as indicated on the plot.
Table 12 lists the genes returned when the following conditions are met: 1) combo peak height >4 fold relative to the DMSO control group, and 2) combo expression >4 fold relative to the DMSO control group.

[6] = SK-N-BE(2) cells, 1 μM ATRA or combination, fold relative to the DMSO control group

Sequence of HDAC2 (Q92769 whole entry): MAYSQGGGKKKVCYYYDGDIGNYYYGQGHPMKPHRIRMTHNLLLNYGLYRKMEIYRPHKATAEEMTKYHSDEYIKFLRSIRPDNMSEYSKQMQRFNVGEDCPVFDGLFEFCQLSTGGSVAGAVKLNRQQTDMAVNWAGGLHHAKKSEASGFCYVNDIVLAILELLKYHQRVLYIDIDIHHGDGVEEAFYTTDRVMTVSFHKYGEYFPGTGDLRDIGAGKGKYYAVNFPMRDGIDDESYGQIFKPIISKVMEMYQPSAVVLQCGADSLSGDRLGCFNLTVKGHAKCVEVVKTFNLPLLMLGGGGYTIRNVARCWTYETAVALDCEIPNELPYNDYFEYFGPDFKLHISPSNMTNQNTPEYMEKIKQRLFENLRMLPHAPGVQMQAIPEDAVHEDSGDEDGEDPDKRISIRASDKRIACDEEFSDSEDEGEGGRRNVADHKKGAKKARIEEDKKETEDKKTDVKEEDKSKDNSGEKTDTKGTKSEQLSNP

## Nc1ccc(-c2cccs2)cc1NC(=O)c1ccc2c(c1)cc(C1CC1)n2CCN1CCOCC1 [Compound B, N-(2-amino-5-(thiophen-2-yl)phenyl)-2-cyclopropyl-1-(2-morpholinoethyl)-1H-indole-5-carboxamide]
[1]
  Differentiation Index Score (gene signature): induces gene expression changes consistent with differentiation
[2]
  cytotoxic effect on neuroblastoma cells as a single agent: has a cytotoxic effect
[3]
  potency of inhibition of HDAC2 activity in live cells: 500 to 3000 nM
[4]
  expression of master cell cycle regulator p21: increased expression
[5]; [6]
  RAR Binding (Peak Height), ACSL3: 2.00
  RAR Binding (Peak Height), ATP7A: 2.20
  RAR Binding (Peak Height), CDKN1A: 0.50
  RAR Binding (Peak Height), CRABP2: 0.69
  RAR Binding (Peak Height), CTSH: 0.83
  RAR Binding (Peak Height), CYP26A1: 2.33
  RAR Binding (Peak Height), CYP26B1: 1.50
  RAR Binding (Peak Height), DHRS3: 1.00
  RAR Binding (Peak Height), DUSP6: 3.00
  RAR Binding (Peak Height), ETS1: 3.35
  RAR Binding (Peak Height), HSPA5: 2.00
  RAR Binding (Peak Height), IER3: 2.67
  RAR Binding (Peak Height), NFKBIZ: 3.33
  RAR Binding (Peak Height), PCDH18: 4.00
  RAR Binding (Peak Height), PTGER2: 0.75
  RAR Binding (Peak Height), RARB: 1.10
  RAR Binding (Peak Height), RET: 1.71
[5]; SK-N-BE(2), 1 μM ATRA, vs DMSO
  RAR binding to chromatin: can reduce RAR binding
